The values below come from patent publication US9381182B2, “Anthranilic acid derivatives: novel inhibitors of advanced glycation end-products (AGEs) formation” (priority 2013, dated 2016).

In data set [1] the test system is rat hepatocytes (CC1-Cell line). In words: Fructose-derived AGE-mediated intracellular ROS generation, DCFH-DA technique. To be noted: no test compound, 24 hours. Format: cell-based. On the procedure:
Methodology: DCFH-DA (Dichlorofluorescin diacetate), H2O2 (Hydrogen peroxide), DMSO (Dimethyl sulfoxide) and PBS (Phosphate buffer saline) were obtained from Sigma, St. Louis, Mo., USA. 96-well black fluorescence plates (Tissue culture treated) were purchased from Thermo Fisher Scientific, Waltham, Mass., USA.
Assay Method: Briefly, rat hepatocytes (CC1-Cell line, 6×10^4 cells/mL) were loaded on a black fluorescence 96-well tissue culture treated plate for 24 hours at 37° C. in an incubator, containing 5% CO2. The cells were serum starved for another 24 hours by adding serum free medium-MEM (minimum essential medium) prior to treatment with fructose-derived AGE and the test compounds, anthranilic acid derivatives. Initially the cells were treated with non fluorescent probe, DCFH-DA (10 μM) in the dark for 45 mins. Following incubation the cells were washed twice with 1×PBS and were treated with different concentrations of the AGEs, such as 0, 50, 100, and 200 μg/mL, to evaluate the AGEs influence on the generation of intracellular ROS in a concentration dependent manner. The cells were then treated with the test compounds (novel anthranilic acid derivatives) at various concentrations 24, 33, and 49 μM, co-incubated with the AGE (200 μg/mL) for 24 hours at 37° C. At the end of the incubation, just before 1 hour, the cells were incubated with H2O2 (0.5%) as a control.
Fluorescence Detection: The intensity of green fluorescence, which is emitted upon the oxidation of the probe in the presence of intracellular ROS, is measured at the excitation and emission wavelength of 490 nm and 520 nm, respectively, by Spectra Max Spectrophotometer, Applied Biosystems, CA, USA.
Where, • Test compound=anthranilic acid derivative • Blank=Untreated normal rat hepatocytes • Control=Hepatocytes treated with 0.5% H2O2

The target of data set [2] is T1, Human serum albumin (HSA) glycation by fructose (AGE-HSA) (Homo sapiens, UniProt P02768).
T1 construct: purchased Sigma Aldrich, St. Louis, Mo., USA
In words: In-vitro antiglycation activity against HSA glycation (fluorescence-based antiglycation assay). The data set is classed as biochemical. The following applies: for inhibition at 1000 µM: read-out: Antiglycation Activity % Inhibition. The protocol: Methodology: Human serum albumin (HSA) free from essential fatty acids and rutin were obtained from Sigma Aldrich, St. Louis, Mo., USA. D-fructose, sodium azide (NaN3) and dimethyl sulfoxide (DMSO) were acquired from Merck, Darmstadt, Germany. All solutions were prepared in sterile environment in deionized water at room temperature.
Assay Method: The assay was performed according the protocol of (Sattarahmady N, et al., 2007) with a little modification. […] Each sample solution (200 μL, final reaction volume) in triplicate loaded a 96-wll black fluorescence plate and was incubated for a week at 37° C. in an incubator.

The nature of data set [3]: MTT-based cytotoxicity assay. The following applies: mouse, 3T3 mouse fibroblast cells, 3T3 cell-line, read-out: Cytotoxicity % Inhibition. From the text: Many studies have highlighted the contribution of AGEs in disease states and primarily investigated their deleterious effects and their possible mechanism of actions. Therefore, there is a need of synthesis and investigation of novel antiglycation agents, which are devoid of any adverse effects, may present a therapeutic approach for the delaying and treatment of premature aging and vascular abnormalities in diabetic patients. In the current study, we explored the novel antiglycation agents (1-18), which are potent inhibitors against the glycation process, and belong to anthranilic acid derivatives. The inhibitors were identified by using high throughput screening method, fluorescence-based antiglycation assay (see Table-1). The cytotoxicity studies were performed against mouse fibroblast cell-line (3T3 Cell-line) by employing MTT-based cytotoxicity assay. The mechanistic studies were also conducted to evaluate the effect of novel antiglycation inhibitors on AGEs-induced intracellular reactive oxygen species generation (ROS) and associated impaired proliferation in rat hepatocytes via dichlorofluorescin diacetate (DCFH-DA) and MTT-based cytotoxicity assay, respectively. Previously, these novel antiglycation inhibitors were known for anticancer and anti-inflammatory activities (Congiu C, et al., 2005).

Setting [4] is: read-out: Antiglycation Activity IC50 ± SEM.

Read-outs that look alike come from different tables or passages of the source.

T1 sequence (P02768 25-609): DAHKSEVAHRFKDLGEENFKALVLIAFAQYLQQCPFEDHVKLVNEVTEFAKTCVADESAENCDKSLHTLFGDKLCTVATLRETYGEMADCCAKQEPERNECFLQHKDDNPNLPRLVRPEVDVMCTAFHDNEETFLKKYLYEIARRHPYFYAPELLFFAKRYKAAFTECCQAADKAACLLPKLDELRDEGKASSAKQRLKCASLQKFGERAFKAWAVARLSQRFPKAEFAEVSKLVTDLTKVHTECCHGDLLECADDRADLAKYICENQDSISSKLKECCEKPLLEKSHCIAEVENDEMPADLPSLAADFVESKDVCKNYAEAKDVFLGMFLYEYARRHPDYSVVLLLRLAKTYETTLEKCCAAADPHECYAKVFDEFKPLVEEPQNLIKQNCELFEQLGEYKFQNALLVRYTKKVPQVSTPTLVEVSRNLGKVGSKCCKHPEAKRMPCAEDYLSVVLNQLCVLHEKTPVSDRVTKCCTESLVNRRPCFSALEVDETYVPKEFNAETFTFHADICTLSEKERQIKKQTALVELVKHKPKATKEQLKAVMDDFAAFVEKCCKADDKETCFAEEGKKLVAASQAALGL

Regarding AGEs, the “Fluorescence (Average), ROS production” value amounted to 114.4 in data set [1] (50 μg/mL), 135.3 in data set [1] (100 μg/mL) and 201.9 in data set [1] (200 μg/mL).
For orientation: IC50 means the concentration that gives 50% inhibition. The term inhibition denotes the drop in the measured response relative to a control, in per cent. Turning to `Cc1cc(C)cc(Nc2ccccc2C(=O)O)c1` [Compound 13, 2-(3,5-Dimethylanilino)benzoic acid], in data set [2], the IC50 came out at 457 ± 0.019 µM and the inhibition at 1000 µM stood at 65%. Also, the cytotoxicity in data set [3] is 4.8%.
Consider `O=C(O)c1ccccc1Nc1cccc([N+](=O)[O-])c1` [Compound 16, 2-(3-Nitroanilino)benzoic acid], for which the inhibition at 1000 µM in data set [2] amounted to 80%. The IC50 in data set [2] (setting [4]) was found to be 264 ± 0.013 µM. The cytotoxicity in data set [3] is 4.1%.
On to `Cc1ccc(Cl)cc1Nc1ccccc1C(=O)O` [Compound 8, 2-(5-Chloro-2-methylanilino)benzoic acid], for which, in data set [2], the IC50 turned out to be 408 ± 0.03 µM and the inhibition at 1000 µM was 69%. Further, the cytotoxicity in data set [3] amounted to 3.2%.
Take `O=C(O)c1ccccc1Nc1cc(Cl)c([N+](=O)[O-])cc1Cl` [Compound 14, 2-(2,5-Dichloro-4-nitroanilino)benzoic acid]: in data set [2], it took 84.8 ± 0.003 µM to reach half-maximal inhibition (IC50) and the inhibition at 1000 µM was 88.8%. The cytotoxicity in data set [3] is 29.6%.
Regarding `COc1cccc(Nc2ccccc2C(=O)O)c1` [Compound 18, 2-(3-Methoxyanilino)benzoic acid], in data set [2], the IC50 amounted to 398 ± 0.007 µM and the inhibition at 1000 µM came to 71%. Further, the cytotoxicity in data set [3] was 7.1%.
Regarding `O=C(O)c1ccccc1Nc1ccc(Cl)cc1` [Compound 5, 2-(4-Chloroanilino)benzoic acid], in data set [2], inhibition was half-maximal at 298 ± 0.015 µM (IC50) and the inhibition at 1000 µM was found to be 62%. Besides, the cytotoxicity in data set [3] was 41.3%.
Regarding `O=C(O)c1ccccc1Nc1cc([N+](=O)[O-])ccc1Cl` [Compound 9, 2-(2-Chloro-5-nitroanilino)benzoic acid], in data set [2], the IC50 was 314 ± 0.01 µM and the inhibition at 1000 µM was found to be 79.4%. Moreover, the cytotoxicity in data set [3] turned out to be 3%.
`O=C(O)c1ccccc1Nc1ccccc1Cl` [Compound 6, 2-(2-Chloroanilino)benzoic acid]: in data set [2], the IC50 was 426 ± 0.017 µM and the inhibition at 1000 µM came out at 68%. In addition, the cytotoxicity in data set [3] was 0.9%.
Take `O=C(O)c1ccccc1Nc1cc(Cl)cc([N+](=O)[O-])c1` [Compound 7, 2-(3-Chloro-5-nitroanilino)benzoic acid]: in data set [2], the midpoint of inhibition, the IC50, lay at 166 ± 0.017 µM and the inhibition at 1000 µM came out at 84.4%. Besides, the cytotoxicity in data set [3] came to 13%.
In the case of `C[C@@H]1O[C@@H](OC[C@H]2O[C@@H](Oc3c(-c4ccc(O)c(O)c4)oc4cc(O)cc(O)c4c3=O)[C@H](O)[C@@H](O)[C@@H]2O)[C@H](O)[C@H](O)[C@H]1O` [rutin, reference compound], in data set [2] (setting [4]), the IC50 stood at 70 ± 0.5 µM.
Regarding `COc1cc(OC)c(Nc2ccccc2C(=O)O)cc1Cl` [Compound 3, 2-(5-Chloro-2,4-dimethoxyanilino)benzoic acid], in data set [2], the IC50 is 266 ± 0.016 µM and the inhibition at 1000 µM is 75.1%. Moreover, the cytotoxicity in data set [3] was found to be 22.4%.
With `O=C(O)c1ccccc1Nc1ccc(F)cc1F` [Compound 10, 2-(2,4-Difluoroanilino)benzoic acid], in data set [2], the IC50 amounted to 558 ± 0.066 µM and the inhibition at 1000 µM was 63%. In addition, in data set [3], the cytotoxicity stood at 1.1%.
As to `O=C(O)c1ccccc1Nc1cc(Cl)ccc1[N+](=O)[O-]` [Compound 17, 2-(5-Chloro-2-nitroanilino)benzoic acid], in data set [2], the IC50 was found to be 150 ± 0.001 µM and the inhibition at 1000 µM was 78%. The cytotoxicity in data set [3] is 1.5%.
Turning to `CCCCc1ccc(Nc2ccccc2C(=O)O)cc1` [Compound 12, 2-(4-Butylanilino)benzoic acid], in data set [2], the midpoint of inhibition, the IC50, lay at 407 ± 0.01 µM and the inhibition at 1000 µM amounted to 70%. Besides, in data set [3], the cytotoxicity stood at 17.3%.
For the compound `O=C(O)c1ccccc1Nc1ccc(Cl)cc1[N+](=O)[O-]` [Compound 2, 2-(4-Chloro-2-nitroanilino)benzoic acid], in data set [2], the IC50 stood at 137 ± 0.002 µM and the inhibition at 1000 µM came out at 82%. The cytotoxicity in data set [3] was determined as 5.6%.
On to `O=C(O)c1ccccc1Nc1cc(Cl)ccc1Cl` [Compound 15, 2-(2,5-Dichloroanilino)benzoic acid], for which, in data set [2], the IC50 came to 678 ± 0.047 µM and the inhibition at 1000 µM is 62%. The cytotoxicity in data set [3] amounted to 1.6%.
Consider `O=C(O)c1ccccc1Nc1ccc(Cl)c([N+](=O)[O-])c1` [Compound 4, 2-(4-Chloro-3-nitroanilino)benzoic acid], for which, in data set [2], the IC50 came out at 266 ± 0.01 µM and the inhibition at 1000 µM came to 68.9%. The cytotoxicity in data set [3] was determined as 19.7%.
Taken in the same sequence, the figures for `O=C(O)c1ccccc1Nc1ccc(Cl)c(Cl)c1` [Compound 11, 2-(3,4-Dichloroanilino)benzoic acid] were 597 ± 0.021 µM, 62% and 40.1%.
